In this assay the test system is HBsAg. Kind of assay: HBsAg assay (CLIA) in HepG2.2.15 cells. The class given is cell-based, HBV. Particulars: Hepatitis B virus, HepG2.2.15, read-out: IC50 (HBsAg secretion). The method, then:
HepG2.2.15 cells (Acs et al. Proc Natl Acad Sci USA, 84, (1987), 4641-4), a constitutively HBV-expressing cell line were cultured in DMEM+Glutamax-I medium (Invitrogen, Carlsbad, Calif., USA), supplemented with 10% fetal bovine serum (Invitrogen) and G418 (Invitrogen) at a final concentration of 200 mg/L and maintained in 5% CO2 at 37° C.
HepG2.2.15 cells were seeded in duplicate into white, 96-well plates at 1.5×10^4 cells/well. The cells were treated with a three-fold serial dilution series of the compounds in DMSO. The final DMSO concentration in all wells was 1% and DMSO was used as no drug control.
The HBsAg chemiluminescence immunoassay (CLIA) kit (Autobio Diagnostics Co., Zhengzhou, China, Catalog number: CL0310-2) was used to measure the levels of secreted HBV antigens semi-quantitatively. For the detection 50 μL/well culture supernatant was used and HBsAg was quantified using HBsAg chemiluminescence immunoassay (CLIA) kit (Autobio Diagnostics Co., Zhengzhou, China, Catalog number: CL0310-2), 50 μL of the supernatant was transferred to the CLIA assay plate and 50 μL of enzyme conjugate reagent was added into each well. The plates were sealed and gently agitated for 1 hour at room temperature. The supernatant-enzyme-mixture was discarded and wells were washed 6 times with 300 μL of PBS. The residual liquid was removed by plating the CLIA plate […] on absorbent tissue paper. 25 μL of substrates A and B were added to each well. Luminance was measured using a luminometer (Mithras LB 940 Multimode Microplate Reader) after 10 minutes incubation, Dose-response curves were generated and the IC50 value was extrapolated by using the E-WorkBook Suite (ID Business Solutions Ltd., Guildford, UK). The IC50 was defined as the compound concentration (or conditioned media log dilution) at which HBsAg secretion was reduced by 50% compared to the no drug control.
The compounds of the present invention were tested for their capacity to inhibit HBsAg as described herein. The Examples were tested in the above assay and found to have IC50 of about 0.001 μM to about 50.0 μM.
With `COc1cc2c(cc1OC)-c1cc(=O)c(C(=O)O)cn1CCC2` [Example 1, 10,11-Dimethoxy-2-oxo-7,8-dihydro-6H-pyrido[2,1-a][2]benzazepine-3-carboxylic acid], the IC50 (as a rule, the concentration at which inhibition is half-maximal) was 35.4 µM.

With `CCC1CCc2cc(OCc3ccccc3)c(OC)cc2-c2cc(=O)c(C(=O)O)cn21` (stereo not shown) [Example 2, 10-Benzyloxy-6-ethyl-11-methoxy-2-oxo-7,8-dihydro-6H-pyrido[2,1-a][2]benzazepine-3-carboxylic acid], the IC50 turned out to be 1.08 µM.

`CCC1CCc2cc(OCCCOC)c(OC)cc2-c2cc(=O)c(C(=O)O)cn21` (stereo not shown) [Example 3, 6-Ethyl-11-methoxy-10-(3-methoxypropoxy)-2-oxo-7,8-dihydro-6H-pyrido[2,1-a][2]benzazepine-3-carboxylic acid]: the IC50 amounted to 0.419 µM.

Turning to `CCC1CCc2cc(OCCCCCCNC(=O)OC(C)(C)C)c(OC)cc2-c2cc(=O)c(C(=O)O)cn21` (stereo not shown) [Example 4, 10-[6-(Tert-butoxycarbonylamino)hexoxy]-6-ethyl-11-methoxy-2-oxo-7,8-dihydro-6H-pyrido[2,1-a][2]benzazepine-3-carboxylic acid], the IC50 came to 0.619 µM.

Consider `CCC1CCc2cc(OCCCCCCN)c(OC)cc2-c2cc(=O)c(C(=O)O)cn21` (stereo not shown) [Example 5, 10-(6-Aminohexoxy)-6-ethyl-11-methoxy-2-oxo-7,8-dihydro-6H-pyrido[2,1-a][2]benzazepine-3-carboxylic acid], for which the IC50 was found to be 0.602 µM.

Take `CCC1CCc2cc(OCCCCCCNC(C)=O)c(OC)cc2-c2cc(=O)c(C(=O)O)cn21` (stereo not shown) [Example 6, 10-(6-Acetamidohexoxy)-6-ethyl-11-methoxy-2-oxo-7,8-dihydro-6H-pyrido[2,1-a][2]benzazepine-3-carboxylic acid]: the concentration for half-maximal inhibition (IC50) came to 12.4 µM.

With `CCC1CCc2cc(OCCCCCCNS(C)(=O)=O)c(OC)cc2-c2cc(=O)c(C(=O)O)cn21` (stereo not shown) [Example 7, 6-Ethyl-10-[6-(methanesulfonamido)hexoxy]-11-methoxy-2-oxo-7,8-dihydro-6H-pyrido[2,1-a][2]benzazepine-3-carboxylic acid], the concentration for half-maximal inhibition (IC50) came to 5.87 µM.

Turning to `CCC1CCc2cc(OCCCSC)c(OC)cc2-c2cc(=O)c(C(=O)O)cn21` (stereo not shown) [Example 8, 6-Ethyl-11-methoxy-10-(3-methylsulfanylpropoxy)-2-oxo-7,8-dihydro-6H-pyrido[2,1-a][2]benzazepine-3-carboxylic acid], the IC50 stood at 1.89 µM.

Regarding `CCC1CCc2cc(OCCCS(C)(=O)=O)c(OC)cc2-c2cc(=O)c(C(=O)O)cn21` (stereo not shown) [Example 9, 6-Ethyl-11-methoxy-10-(3-methylsulfonylpropoxy)-2-oxo-7,8-dihydro-6H-pyrido[2,1-a][2]benzazepine-3-carboxylic acid], the IC50 was found to be 1.07 µM.

As for `CCC1CCc2cc(OCC(F)(F)F)c(OC)cc2-c2cc(=O)c(C(=O)O)cn21` (stereo not shown) [Example 10, 6-Ethyl-11-methoxy-2-oxo-10-(2,2,2-trifluoroethoxy)-7,8-dihydro-6H-pyrido[2,1-a][2]benzazepine-3-carboxylic acid], the IC50 was 0.558 µM.
